The values below come from ChEMBL document CHEMBL6127021, “Inhibition of protein tyrosine phosphatase 1B by serratane triterpenes from Huperzia serrata and their molecular docking study” (Bioorg Med Chem Lett, 2024).

Assay [1] addresses T1, Tyrosine-protein phosphatase non-receptor type 1 (Homo sapiens, UniProt P18031).
T1 sequence (P18031 whole entry): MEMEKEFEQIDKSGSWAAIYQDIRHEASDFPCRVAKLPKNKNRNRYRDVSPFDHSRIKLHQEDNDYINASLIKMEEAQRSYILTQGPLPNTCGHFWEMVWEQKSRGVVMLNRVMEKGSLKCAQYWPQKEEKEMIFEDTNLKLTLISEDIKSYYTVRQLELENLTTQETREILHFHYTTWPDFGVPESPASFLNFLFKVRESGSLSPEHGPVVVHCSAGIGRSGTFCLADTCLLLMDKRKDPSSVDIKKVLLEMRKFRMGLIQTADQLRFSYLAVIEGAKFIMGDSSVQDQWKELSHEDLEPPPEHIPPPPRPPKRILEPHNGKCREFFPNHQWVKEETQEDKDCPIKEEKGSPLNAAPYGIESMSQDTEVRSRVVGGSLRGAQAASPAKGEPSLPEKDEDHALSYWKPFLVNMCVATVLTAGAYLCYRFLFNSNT
Briefly: Inhibition of recombinant human PTP1B using p-NPP as substrate incubated for 30 mins by absorbance based microplate reader.

Assay [2] concerns the target T1, Tyrosine-protein phosphatase non-receptor type 1. Kind of assay: Competitive inhibition of recombinant human PTP1B using p-NPP as substrate assessed as inhibition constant incubated for 30 mins by Lineweaver-Burk plot analysis.

Regarding `CC1(C)[C@@H](O)CC[C@@]2(C)[C@H]1CC[C@@]1(C)CC3=CC[C@H]4C(C)(C)[C@H](O)CC[C@]4(C)[C@H]3CC[C@@H]12`, in assay [1], the IC50 (in general, the concentration needed to halve the response being measured) is 4.65 µM. Besides, the Ki (usually a measure of affinity in units of concentration, obtained from inhibition or displacement) in assay [2] worked out at 11.9 µM.
In the same order, the values of `CC1(C)[C@@H](O)CC[C@@]2(C)[C@H]1CC[C@@]1(C)CC3=CC[C@H]4C(C)(C)[C@@H](O)CC[C@]4(C)[C@H]3CC[C@@H]12` are 7.28 µM and 12.2 µM.
Consider `CC(=O)O[C@H]1CC[C@@]2(C)[C@@H](CC[C@]3(O)C[C@]4(C)CC[C@H]5C(C)(C)[C@@H](O)CC[C@]5(C)[C@H]4CC[C@@H]32)C1(C)C`, for which the concentration for half-maximal inhibition (IC50) in assay [1] was greater than 30 µM.
Still for that read-out and setting: in the case of `CC(=O)O[C@H]1CC[C@@]2(C)[C@@H](CC[C@@]3(C)CC4=CC[C@H]5C(C)(C)[C@@H](O)CC[C@]5(C)[C@H]4CC[C@@H]32)C1(C)C` it was greater than 30 µM.
